# Test results as given in the NIST ThermoML archive (doi:10.1016/j.jct.2017.04.017).
# ± gives the expanded uncertainty stated by the source.
# Columns and labels:
# [1] = Crystal; DTA
# [2] = Molar enthalpy of transition or fusion; conditions: Crystal; DSC
structure (smiles),measurement,setting,value
O=C(Nc1ccccc1-c1ccc(Cl)cc1)c1cccnc1Cl [Boscalid],Normal melting temperature,[1],146.73 ± 0.61 °C
same,Molar enthalpy of transition or fusion,[2],37.2 ± 1.4 kJ/mol
